Results as given in BindingDB's records for doi:10.7270/Q27H1H0J (Srmlsc, 2008).
pIC50: −log10 of the molar value.

What follows are molecules tested against T1, M1 family aminopeptidase (Plasmodium falciparum (isolate FcB1 / Columbia), UniProt O96935) (assay: malaria alanyl aminopeptidase activity blockers – biochemical, fluorogenic H-Leu-NHMec substrate, 1536-well (AID 1445)).
T1 sequence (O96935 whole entry): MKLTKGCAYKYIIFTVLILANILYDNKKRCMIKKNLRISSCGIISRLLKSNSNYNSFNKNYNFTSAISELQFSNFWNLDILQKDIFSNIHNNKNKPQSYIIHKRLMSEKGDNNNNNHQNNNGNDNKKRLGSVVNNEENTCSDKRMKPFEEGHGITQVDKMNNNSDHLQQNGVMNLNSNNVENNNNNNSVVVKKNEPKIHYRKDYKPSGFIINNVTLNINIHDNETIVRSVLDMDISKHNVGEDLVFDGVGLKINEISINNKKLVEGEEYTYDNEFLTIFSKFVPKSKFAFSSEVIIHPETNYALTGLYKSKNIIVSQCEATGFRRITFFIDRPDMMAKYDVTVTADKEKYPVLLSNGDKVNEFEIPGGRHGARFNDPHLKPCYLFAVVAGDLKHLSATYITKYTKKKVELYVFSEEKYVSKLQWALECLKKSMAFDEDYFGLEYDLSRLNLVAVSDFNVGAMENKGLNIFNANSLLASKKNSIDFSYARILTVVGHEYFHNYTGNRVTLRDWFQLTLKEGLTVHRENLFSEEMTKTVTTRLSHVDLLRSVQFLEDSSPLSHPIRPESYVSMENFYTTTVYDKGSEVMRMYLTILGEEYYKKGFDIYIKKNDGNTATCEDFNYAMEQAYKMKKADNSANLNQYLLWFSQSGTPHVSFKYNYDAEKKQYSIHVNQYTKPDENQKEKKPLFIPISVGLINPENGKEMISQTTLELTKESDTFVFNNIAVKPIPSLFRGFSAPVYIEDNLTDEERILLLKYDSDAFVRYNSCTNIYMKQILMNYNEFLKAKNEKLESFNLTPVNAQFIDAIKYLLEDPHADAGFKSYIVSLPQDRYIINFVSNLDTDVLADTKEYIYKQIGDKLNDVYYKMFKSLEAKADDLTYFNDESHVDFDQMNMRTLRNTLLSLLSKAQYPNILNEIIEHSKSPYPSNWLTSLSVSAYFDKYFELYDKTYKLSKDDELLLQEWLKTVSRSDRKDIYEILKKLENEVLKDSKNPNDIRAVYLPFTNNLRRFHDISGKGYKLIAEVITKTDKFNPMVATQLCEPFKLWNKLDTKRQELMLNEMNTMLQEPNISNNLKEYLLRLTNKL

Row | Compound | pIC50
1 | COc1ccc(CN=Nc2nc(O)c(CC(=O)O)s2)cc1OCc1ccc(Cl)cc1 [2-[2-[2-[[3-[(4-chlorophenyl)methoxy]-4-methoxy-phenyl]methylidene]hydrazinyl]-4-oxidanylidene-1,3-thiazol-5-yl]ethanoic acid] | 4.18
2 | COc1ccc(OC)c(C2C(C(=O)Nc3cccnc3)=C(C)N=C3CCCC(=O)C32)c1 (centres undefined) [4-(2,5-dimethoxyphenyl)-2-methyl-5-oxo-N-3-pyridinyl-1,4,5,6,7,8-hexahydro-3-quinolinecarboxamide] | 4.28
3 | O=C(O)c1cc(-c2ccc(CN=Nc3ccc([N+](=O)[O-])cn3)o2)ccc1Cl [2-chloro-5-[5-[[(5-nitropyridin-2-yl)hydrazinylidene]methyl]furan-2-yl]benzoic acid] | 4.90
4 | N#C/C(=C\C1C=CC(=O)C([N+](=O)[O-])=C1)c1nc2ccccc2s1 (centres undefined) | 4.47
5 | O=C1CC(c2ccco2)CC(=O)C1=CNc1cc(Cl)ccc1O (centres undefined) [MLS000037985] | 5.25
6 | Cc1cc(=O)[nH]c(N=NCc2c(O)n(-c3ccccc3)c(=O)c3ccccc23)n1 [SMR000221270] | 4.33
7 | CCOC(=O)C(C=NC(N)=Nc1nc2ccccc2o1)C(=O)OCC [2-[[[amino-(1,3-benzoxazol-2-ylamino)methylidene]amino]methylidene]propanedioic acid diethyl ester] | 4.10
8 | O=C(O)c1ccc(-c2ccc(CN=Nc3ccc([N+](=O)[O-])cc3)o2)cc1 | 4.37
9 | CCOc1ccc(-n2c(O)c(CN=Nc3nnc(C)c(=O)[nH]3)c3ccccc3c2=O)cc1 | 4.68
10 | CC(=O)N1N=C(C2C(=O)N(C)C(=O)N(C)C2=O)CC1c1ccccc1 (centres undefined) [5-(1-acetyl-5-phenylpyrazolidin-3-ylidene)-1,3-dimethyl-1,3-diazinane-2,4,6-trione] | 4.80
11 | C/C(Cl)=C\CN1C(=O)C(=NNC(N)=S)c2ccccc21 [[(Z)-[1-[(E)-3-chlorobut-2-enyl]-2-oxoindol-3-ylidene]amino]thiourea] | 4.20
12 | Oc1ccc(O)n1-c1nc2n(n1)C(c1ccccc1)CC(c1ccc(Br)cc1)=N2 (centres undefined) [MLS000037189] | 4.16
13 | CN1C(=O)/C(=C/c2ccc(-c3ccccc3[N+](=O)[O-])o2)S/C1=N/c1ccc(Cl)c(C(=O)O)c1 [2-Chloro-5-[3-methyl-5-[1-[5-(2-nitro-phenyl)-furan-2-yl]-meth-(Z)-ylidene]-4-oxo-thiazolidin-(2Z)-ylideneamino]-benzoic acid] | 4.79
14 | Cc1ccc(O)c(NC=C2C(=O)c3ccccc3C2=O)c1 [MLS000104939] | 4.14
15 | CCN1C(=O)/C(=N\NC(=O)c2cccs2)c2ccccc21 [MLS000760154] | 4.15
16 | CCOC(=O)C1C(=O)C(=Cc2ccc(OCC(=O)O)c(OCC)c2)SC1=Nc1ccc(OC)cc1 (centres undefined) [MLS000704394] | 4.44
17 | N#CC(=NNc1ccc(Cl)cc1)C(=O)c1ccccc1 [2-[(4-chlorophenyl)hydrazono]-3-oxo-3-phenylpropanenitrile] | 3.97

Row | Compound | pIC50
18 | Cc1nnc(=O)[nH]c1N=NCc1cccs1 [thiophene-2-carbaldehyde (6-methyl-3-oxo-2,3-dihydro-1,2,4-triazin-5-yl)hydrazone] | 4.59
19 | COc1ccc(-c2n[nH]c3c2C2(C(=O)N(CC(=O)O)c4ccccc42)C(C#N)C(=N)O3)cc1OC (centres undefined) [2-[6-amino-5-cyano-3-(3,4-dimethoxyphenyl)-2'-oxo-1'-spiro[2H-pyrano[2,3-c]pyrazole-4,3'-indole]yl]acetic acid] | 4.36
20 | CCOc1cc(C2C3=C(CCCC3=O)N=C3CCCC(=O)C32)cc(Cl)c1O (centres undefined) [9-(3-Chloro-5-ethoxy-4-hydroxy-phenyl)-3,4,6,7,9,10-hexahydro-2H,5H-acridine-1,8-dione] | 4.62
21 | CC(=O)Nc1ccc(S(=O)(=O)Oc2cccc(CN=Nc3nc(O)c(CC(=O)O)s3)c2)cc1 [(2-{[3-({[4-(acetylamino)phenyl]sulfonyl}oxy)benzylidene]hydrazono}-4-oxo-1,3-thiazolidin-5-yl)acetic acid] | 4.28
22 | CCOC(=O)C1C(CC)=Nc2ccccc2N=C1NS(=O)(=O)c1cc(Br)ccc1Br (centres undefined) [MLS000775637] | 4.52
23 | C#CCOCCOCCOCCNc1nc(N2CCN(C(=O)[C@H](Cc3cc4ccccc4[nH]3)n3cc([C@@H](N)C(C)CC)nn3)CC2)nc(N2CCN(C(=O)[C@H](Cc3cc4ccccc4[nH]3)n3cc([C@@H](N)CC(C)C)nn3)CC2)n1 (some centres undefined) [SMR000391064] | 4.26
24 | O=C(O)c1cccc(-c2ccc(CN=Nc3ccc([N+](=O)[O-])cc3)o2)c1 [MLS000777078] | 4.56
25 | COc1cc(Br)c(C2c3c(-c4cccnc4)n[nH]c3OC(=N)C2C#N)cc1OC (centres undefined) [SMR000114618] | 4.35
26 | C=c1c(C#N)c2[nH]c(N)c(C#N)c(C)c-2c1=Cc1ccc(-c2ccccc2C(=O)O)o1 [SMR000277284] | 4.28
27 | O=C(Cn1cnc([N+](=O)[O-])n1)N/N=C/C1C=C(Cl)C=CC1=O (centres undefined) [SMR000312480] | 4.88
28 | CC(NNC(=O)c1cccc(Cl)c1)=C1C(=O)c2ccccc2C1=O | 4.39
29 | CCOC(=O)C1C(=O)C(=Cc2ccc(OCC(=O)O)c(OCC)c2)SC1=Nc1ccccc1 (centres undefined) [2-[4-[(Z)-(5-anilino-4-ethoxycarbonyl-3-oxo-2-thiophenylidene)methyl]-2-ethoxyphenoxy]acetic acid] | 4.22
30 | C=c1[nH]n(-c2nnc(C)c(=O)[nH]2)c(=O)c1=Cc1ccc(N(CC)CC)cc1 [3-{4-[1-(4-Diethylamino-phenyl)-meth-(Z)-ylidene]-3-methyl-5-oxo-4,5-dihydro-pyrazol-1-yl}-6-methyl-4H -[1,2,4]triazin-5-one] | 4.37
31 | Cc1c(N2C(=O)C(=O)C(C(=O)c3ccc(Cl)cc3)C2c2ccccc2)c(=O)n(-c2ccccc2)n1C (centres undefined) [MLS000331609] | 4.21
32 | CN1CCN(CC2=c3oc(=O)c(=C4C=CCC=N4)cc3C=CC2=O)CC1 [(3E)-8-[(4-methylpiperazin-1-yl)methyl]-3-(1H-pyridin-2-ylidene)chromene-2,7-dione] | 4.28
33 | O=C1NC(=S)NC(=O)C1N=Nc1ccc(-c2ccccc2)cc1[N+](=O)[O-] [5-[(2-nitro-4-phenylphenyl)hydrazinylidene]-2-sulfanylidene-1,3-diazinane-4,6-dione] | 4.98
34 | COC1=CC(C=NNC(=O)C(Cc2c[nH]c3ccccc23)NC(=O)OCc2ccccc2)C=C([N+](=O)[O-])C1=O (centres undefined) [benzyl N-[3-(1H-indol-3-yl)-1-[2-[(E)-(3-methoxy-5-nitro-4-oxocyclohexa-2,5-dien-1-ylidene)methyl]hydrazinyl]-1-oxopropan-2-yl]carbamate] | 5.32
